Here are results for two compounds from patent publication US20130065818A1, “Arylamide Compounds And Compositions And Uses Thereof” (POLYMEDIX, priority 2006, published 2013).

For assay [1], the system named is Ciprofloxacin Susceptible (CS) S. aureus (CSSA). Nature of the assay: MIC of clinical ocular isolates (Example 1). It counts as cell-based. The following applies: Staphylococcus aureus; CSSA clinical ocular isolates (n=27).
For the next assay, the system named is P. aeruginosa (PA). Nature of the assay: MIC of clinical ocular isolates (Example 1). It counts as cell-based. The following applies: Pseudomonas aeruginosa; PA clinical ocular isolates (n=26).
A further assay has as its system St. viridans group (SV). Nature of the assay: MIC of clinical ocular isolates (Example 1). The assay is classed as cell-based. The following applies: Streptococcus viridans.
The next assay relates to CR S. epidermidis (CRSE). Description: MIC of clinical ocular isolates (Example 1). The assay is classed as cell-based. The following applies: Staphylococcus epidermidis; CRSE clinical ocular isolates (n=26).
The next assay has as its system CS S. epidermidis (CSSE). Description: MIC of clinical ocular isolates (Example 1). The assay is classed as cell-based. The following applies: Staphylococcus epidermidis; CSSE clinical ocular isolates (n=26).
The test system of a further assay is Serratia marcescens (SM). Nature of the assay: MIC of clinical ocular isolates (Example 1). The assay is classed as cell-based. The following applies: SM clinical ocular isolates (n=27).
Another assay concerns Moraxella Species (MS). Description: MIC of clinical ocular isolates (Example 1). It counts as cell-based. The settings on record: MS clinical ocular isolates (n=25).
The test system of assay [2] is Ciprofloxacin Resistant (CR) S. aureus (CRSA). Description: MIC of clinical ocular isolates (Example 1). The assay is classed as cell-based. The settings on record: Staphylococcus aureus; CRSA clinical ocular isolates (n=28).
The subject of a further assay is St. pneumoniae (SP). Description: MIC of clinical ocular isolates (Example 1). It counts as cell-based. The settings on record: Streptococcus pneumoniae; SP clinical ocular isolates (n=27).
Another assay concerns H. influenzae (HI). Nature of the assay: MIC of clinical ocular isolates (Example 1). The assay is classed as cell-based. The following applies: Haemophilus influenzae; HI clinical ocular isolates (n=26).
A short description of assay [3]: NZW rabbit keratitis model, clinical evaluation (Total Ocular Score). The following applies: Oligomer 2 study, N 3. How it is done:
Fifteen rabbits were received from Myrtles' Rabbitry, Thompson Station, TN. The clinical isolate of fluoroquinolone-resistant, methicillin-resistant (MRSA) Staphylococcus aureus (K950) was subcultured on 5% sheep blood agar and incubated at 37° C. in 6% CO2 overnight. The next morning, the MRSA strain was suspended in sterile trypticase soy broth to a 0.5 McFarland Standard, containing approximately 5×10^8 cfu/ml of bacteria. The absorbance of the suspension was measured at 650 nm using a Beckman DU-70 spectrophotometer. OD readings of 0.07 corresponded to 5×10^8 cfu/ml of bacteria. This concentration was appropriately diluted in sterile trypticase soy broth to provide the inoculum of approximately 1,000 (1.0×10^3) cfu/eye in 25 μl. Colony counts were performed on the inoculum to determine the actual cfu inoculated. Following general anesthesia with ketamine and xylazine and topical anesthesia with proparacaine and prior to bacterial inoculation in the left eyes, 6 mm areas of the corneal epithelia was removed centrally with an Amoils epithelial scrubber. Nothing was done to the right eyes. The 15 rabbits were then inoculated intrastromally in both eyes with 25 μl of the bacterial dilution of approximately 10^3 cfu/eye of the bacteria. The bacterial inoculation of the left eyes was directly under the epithelial defect created by the Amoils epithelial scrubber. The epithelia were removed in the left corneas in order to determine whether this layer of the cornea is a barrier for Oligomer 2 penetration when compared to the right cornea with an intact epithelium. A colony count was done on the inoculum to determine the actual cfu inoculated. The rabbits were immediately treated with analgesia in the form of and intramuscular injection of ketoprofen, 1.5 mg/kg. After 4 hours, the 15 rabbits were divided into 4 treatment groups and one untreated control group sacrificed at the onset of therapy. Both eyes of each rabbit of the treatment groups were treated with one 37 μl drop of the coded solutions or control Saline or 1 drop of vancomycin from its dropper bottle. The Oligomer 2 concentrations were masked and labeled as 1 and 2. The masked concentrations were 1% Oligomer 2 and 0.5% Oligomer 2 but the specific concentrations of solutions were not known to the lab workers who carried out the experiment. The vancomycin and control (Tris-Buffered Saline) were not masked.
Treatment was scheduled for every 15 minutes for 5 hours (21 total doses). However, PMX-1 and PMX-2 were exhausted after the 19th dose. Therefore, the actual treatment was 15 minutes for 4.5 hours (19 total doses). The 3 rabbits in group V were sacrificed 4 hours PI and large 9.5 mm buttons were removed from the corneas. These were placed in 1 ml of PBS and kept on ice. The corneal buttons were homogenized for 25 seconds on ice using the motorized homogenizer. After homogenization, colony counts were done on the homogenates using 5% sheep blood agar plates to determine the amount of bacteria contained in the corneas at the onset of therapy. Following the completion of therapy, the eyes were examined for clinical signs of infection. One hour after the final treatment, the treated rabbits (Groups I-IV) were sacrificed and large 9.5 mm buttons were removed from the corneas. These were placed in 1 ml of PBS and kept on ice. The corneal buttons were homogenized for 25 seconds on ice using the motorized homogenizer. After homogenization, colony counts were performed on the homogenates using 5% sheep blood agar plates to determine the amount of bacteria contained in the corneas after treatment. The next morning, the plates were counted and the number of cfu/eye of Staphylococcus aureus was determined for each cornea.
Fifteen rabbits were received from Myrtles' Rabbitry, Thompson Station, TN.

Assay [4] has as its system fluoroquinolone-resistant, methicillin-resistant Staphylococcus aureus (K950). Nature of the assay: NZW rabbit keratitis model, corneal colony counts. The following applies: for Statistical comparison of corneal colony counts (< = significantly fewer colony counts): drops every 15 min. It counts as in vivo. The source says: One purpose of the following experiments was to compare the efficacy of 1% Oligomer 2, 0.5% Oligomer 2, and 5% vancomycin in the treatment of a fluoroquinolone-resistant, methicillin-resistant Staphylococcus aureus infection in the NZW rabbit keratitis model with or without intact corneal epithelia.
Nothing was done to the right eyes.
One purpose of the following experiments was to compare the efficacy of 0.25% Oligomer 2, with and without 0.005% benzalkonium chloride, and 5% vancomycin in the treatment of a fluoroquinolone-resistant, methicillin-resistant Staphylococcus aureus infection in the NZW rabbit keratitis model with or without intact corneal epithelia. The 0.005% benzalkonium chloride has been added to try to increase the penetration of 0.25% Oligomer 2 through the corneal epithelium.
One purpose of the following experiments was to determine the efficacy of 0.25% Oligomer 4, with and without 200 μM Farnesol, and 200 μM Farnesol in the treatment of a fluoroquinolone-resistant and methicillin-resistant Staphylococcus aureus infection in the NZW rabbit keratitis model with or without intact corneal epithelia. The 200 μM Farnesol has been added to try to increase the efficacy and penetration of 0.25% Oligomer 4 through the corneal epithelium.

Assay [5] relates to Fluoroquinolone-Resistant Methicillin-Resistant Staphylococcus aureus Strain K950. Nature of the assay: MIC characterization of strain K950. It counts as cell-based. The following applies: read-out: MIC (Minimum Inhibitory Concentration).

Each structure is given as a SMILES string. ≈ marks a conversion by molar mass, not a printed value. Entries after “also recorded” stand apart in the source; their conditions may differ.

Consider `CC(C)(C)c1cc(NC(=O)CCCCNC(=N)N)c(SCCNC(=N)N)c(NC(=O)c2cc(C(=O)Nc3cc(C(C)(C)C)cc(NC(=O)CCCCNC(=N)N)c3SCCNC(=N)N)ncn2)c1` [Oligomer 1], for which the MIC50 in [1] turned out to be 0.125 µg/mL; in the assay on P. aeruginosa (PA) it was 4 µg/mL; with St. viridans group (SV), 4 µg/mL; in the assay with CR S. epidermidis (CRSE), 0.03 µg/mL; with CS S. epidermidis (CSSE), 0.03 µg/mL; with Serratia marcescens (SM), 16 µg/mL. Further, the MIC50 in the assay with Moraxella Species (MS) turned out to be 0.5 µg/mL; in assay [2], 0.25 µg/mL; in the assay on St. pneumoniae (SP), 0.5 µg/mL; in the assay on H. influenzae (HI), 16 µg/mL. Further, the MIC90 in assay [1] was determined as 0.25 µg/mL; in the assay with P. aeruginosa (PA), 8 µg/mL; in the assay on St. viridans group (SV) it was 16 µg/mL; with CR S. epidermidis (CRSE) it was 0.03 µg/mL; in the assay on CS S. epidermidis (CSSE), 0.125 µg/mL; with Serratia marcescens (SM), 64 µg/mL. Moreover, the MIC90 in the assay with Moraxella Species (MS) turned out to be 0.5 µg/mL; in assay [2], 0.25 µg/mL; in the assay with St. pneumoniae (SP) it was 1 µg/mL; in the assay on H. influenzae (HI) it was 32 µg/mL.
Consider `CN[C@H](CC(C)C)C(=O)N[C@H]1C(=O)N[C@@H](CC(N)=O)C(=O)N[C@H]2C(=O)N[C@H]3C(=O)N[C@H](C(=O)N[C@H](C(=O)O)c4cc(O)cc(O)c4-c4cc3ccc4O)[C@H](O)c3ccc(c(Cl)c3)Oc3cc2cc(c3O[C@@H]2O[C@H](CO)[C@@H](O)[C@H](O)[C@H]2O[C@H]2C[C@](C)(N)[C@H](O)[C@H](C)O2)Oc2ccc(cc2Cl)[C@H]1O` [Vancomycin, reference compound], for which the “Total Ocular Score, Median” value in assay [3] (abraded epithelium) and in assay [3] (intact epithelium) was 9.5 in each case. In addition, the “Statistical comparison of corneal colony counts (< = significantly fewer colony counts)” value in assay [4] (Ker-1 (Example 9), abraded (removed) epithelium, 19 doses) is recorded as “Vancomycin<Saline Control”; in assay [4] (Ker-1 (Example 9), intact epithelium, 19 doses), “Vancomycin<Saline Control; also recorded: Vancomycin<PMX-1; also recorded: Vancomycin<PMX-2”; in assay [4] (Ker-2 (Example 10), abraded (removed) epithelium, 21 doses) it was “Vancomycin<Saline Control”; in assay [4] (Ker-2 (Example 10), intact epithelium, 21 doses), “Vancomycin<Saline Control; also recorded: Vancomycin<PMX-B”. Also, in assay [4] (Log10 CFU/ml, < = significantly fewer colony counts), the “Effect of Abraded Epithelium on colony counts (Intact vs. Abraded, two sample T-test)” value is reported as “Abraded = Intact”. The “Effect of Abraded Epithelium on Effectiveness of Each Test Solution (colony counts, abraded vs. intact)” value in assay [4] (Oligomer 2 study, two sample T-test, < = significantly fewer colony counts) is “Abraded = Intact”. In addition, in assay [5], the MIC was determined as 2 µg/mL (≈ 1.38 µM).
